According to US20200306222A1, “Dosing Regimen of Siponimod” (NOVARTIS AG, priority 2017, published 2020):

Tests used:
[1] = tested on: peripheral lymphocyte counts; assay: general pharmacokinetics/pharmacodynamics of siponimod (lymphocyte counts, half-life, brain penetration); format: in vivo
Experimental: (§1) Siponimod is a second generation S1P receptor modulator that reduces peripheral lymphocyte counts approximately 4-6 hours (h) after the first dose. […] Siponimod's mode of action is believed to include S1P1-mediated prevention of effector lymphocyte recirculation from lymphatic tissue to sites of inflammation, such as the central nervous system (CNS). In addition, there may be direct beneficial effects in the CNS mediated by S1P1 and/or S1P5. […] Thus, siponimod may display additional beneficial activities in the CNS.

[2] = as above; format: in vivo; conditions: in vivo
Experimental: as §1

[3] = tested on: Absolute Lymphocyte Count (ALC); assay: multiple ascending dosing study in healthy volunteers, decline of Absolute Lymphocyte Count; format: in vivo, human
Experimental: (§2) In another study in healthy subjects siponimod was administered in multiple doses, i.e. 0.3, 1, 2.5, 10 and 20 mg, over 28 days (multiple ascending dosing study, MAD study).

[4] = multiple-dose titration clinical study in healthy subjects, daily chronotropic effects; format: in vivo, human
Experimental: S1P receptor modulators, as mentioned above, are known to cause dose dependent transient decrease in heart rate within 2-3 hours of drug intake (Legangneux et al. 2012, Hoch et al. 2014). In order to evaluate on how to best mitigate the bradyarrhythmic risk of siponimod, a multiple-dose titration clinical study in healthy subjects was run.
The primary objective of this study was to measure the daily chronotropic effects of two siponimod dose-titration regimens (from 0.25 mg to 10 mg; Dose Titration (DT) 1# and 2#, respectively) compared to daily chronotropic effects of oral siponimod 10 mg (fixed dose, once daily) and placebo over 12 days. The heart rate (HR) changes have been compared between subjects exposed to 10 mg siponimod once daily (QD) with or without 2 different up-titration schemes. The titration scheme of this study was: • DT 1#: Day 1: 0.25 mg; Day 2: 0.25 mg; Day 3: 0.25 mg; Day 4: 0.5 mg; Day 5: 1.0 mg; Day 6: 2.0 mg; Day 7: 4.0 mg; Day 8: 8.0 mg and from Day 9 to Day 12: 10.0 mg daily. • DT 2#: Day 1: 0.25 mg; Day 2: 0.25 mg; Day 3: 0.5 mg; Day 4: 0.75 mg; Day 5: 1.25 mg; Day 6: 2.0 mg; Day 7: 3.0 mg; Day 8: 5.0 mg; from Day 9 to Day 12: 10.0 mg daily.
This effect was maintained until end of treatment on Day 12. […] It was then concluded that both titration regimens effectively attenuated the initial bradycardia observed on Day 1 of treatment with siponimod 10 mg daily fixed-dose.

[5] = randomized placebo-controlled study of siponimod in intracerebral hemorrhage (ICH) patients; format: in vivo, human; conditions: compared to placebo
Text: The clinical study investigates the initial efficacy and safety of siponimod administered on top of standard-of-care compared to placebo in patients with intracerebral hemorrhage (ICH). This is a randomized, doubled-blinded, placebo-controlled, parallel group study of siponimod on top of standard-of-care for ICH, consisting of 3 epochs: Screening/Baseline, Treatment, and Follow-Up (see FIG. 1).
Patients fulfilling all eligibility criteria are randomly allocated to one of two treatment groups in a ratio of 1:1. […] These patients continue to be followed for the remainder of the assessment schedule (Table 3). i.v. Dose Titration
The siponimod i.v. dosing regimen is as follows: • Day 1: 0.25 mg over 6 hours (×2), then 0.5 mg over 6 hours, then 0.75 mg over 6 hours for a total Day 1 dose of 1.75 mg • Day 2: 1.25 mg over 6 hours, then 2 mg over 6 hours, then 2.5 mg over 6 hours (×2) for a total Day 2 dose of 8.25 mg • Days 3 through Day 7: 2.5 mg over 6 hours (×4) for a total daily dose of 10 mg. • If patient can swallow then the administration from Day 8 to Day 14 is oral.
This is a randomized, doubled-blinded, placebo-controlled, parallel group study of siponimod on top of standard-of-care for ICH, consisting of 3 epochs: Screening/Baseline, Treatment, and Follow-Up (see FIG. 1).
Patients are assigned to one of the following 2 treatment arms in a ratio of 1:1. • Study treatments are defined as: • Siponimod • Day 1: i.v. 0.25 mg over 6 hours (×2), then 0.5 mg over 6 hours, then 0.75 mg over 6 hours for a total Day 1 dose of 1.75 mg • Day 2: i.v. 1.25 mg over 6 hours, then 2 mg over 6 hours, then 2.5 mg over 6 hours (×2) for a total Day 2 dose of 8.25 mg • Days 3 through 7: i.v. 2.5 mg over 6 hours (×4) for a total daily dose of 10 mg • Days 8 through 14; 10 mg p.o. QD

[6] = multiple ascending dosing study (MAD study) in healthy subjects, adverse events; format: in vivo, human; conditions: maximum investigated multiple dose of 20 mg, over 28 days
Experimental: as §2

[7] = i.v. versus oral absolute bioavailability study in healthy subjects (CBAF312A2126), PK and PD; format: in vivo, human
Experimental: A comparison of bradyarrhythmic effects (HR, AVB, SP) of a 1 mg oral dose from previous studies and a 1 mg/day i.v. dose infused over 24 h in healthy subjects supported the hypothesis that such effects are related to the slope of the concentration-time curve.
In said study with siponimod administered intravenously, PK and PD were determined. […] This finding was consistent with previous oral administrations of 0.25 mg (starting dose of the oral initial period dosing regimen).
(§3) The safety of the i.v. route in humans was supported by a local tolerance study in rabbit and cardiovascular safety studies in guinea pig, rat and rabbit using i.v. (bolus) route.

[8] = i.v. (bolus) cardiovascular safety studies; format: in vivo, guinea pig, rat and rabbit; conditions: similar to the effects by oral route
Text: as §3

[9] = siponimod single dose study (SAD study) in healthy volunteers; format: in vivo; conditions: healthy subjects
[10] = tested on: CYP2C9, CYP3A4; conditions: humans; cited from earlier work
[11] = clinical study of siponimod pharmacokinetics in CYP2C9 poor metabolizers; format: in vivo, human
Text: In addition to the previously described benefits, the dosing regimen of the present disclosure has also the advantage to highly reduce the additional risks run by the CYP2C9 poor metabolizer.

[12] = phase II dose finding study in relapsing-remitting multiple sclerosis (CBAF312A2201); format: in vivo, human; conditions: RRMS patients
Experimental: In a phase II dose finding study of siponimod in patients with relapsing-remitting multiple sclerosis (CBAF312A2201) safety, tolerability and efficacy on magnetic resonance imaging (MRI) brain lesion parameters were evaluated. The dose response curve for the MRI-based efficacy of siponimod given orally once daily compared with placebo was determined.
The dose-response curve as defined by the primary endpoint, favored the upper part of this range, i.e. a dose in the range of siponimod 2 mg, since efficacy seemed to decrease with lower doses. Siponimod achieved positive results in a clinical trial for the treatment of RRMS patients (Selmaj et al., Lancet Neurol, 2013, 12, 756-767) and is currently being investigated in an ongoing phase III study (EXPAND) in patients with SPMS. The dose of 2 mg of siponimod was the chosen dose for this follow up phase III study.

Question: With `CCc1cc(/C(C)=N/OCc2ccc(C3CCCCC3)c(C(F)(F)F)c2)ccc1CN1CC(C(=O)O)C1` [siponimod, 1-{4-[(1E)-N-{[4-cyclohexyl-3-(trifluoromethyl)benzyl]oxy}ethanimidoyl]-2-ethylbenzyl}-3-azetidine carboxylic acid] as the molecule, how does the “time to reduction of peripheral lymphocyte counts” value ([1]; after the first dose) read?
Answer: The value was 4 to 6 h (h).

Question: And the “recovery of the baseline lymphocyte counts” value ([1]; after treatment withdrawal)?
Answer: The value was “within a week”.

Question: What about the “blood brain barrier crossing” value ([1]; in vivo) of the same molecule?
Answer: Its value is “readily crosses the blood brain barrier”.

Question: And the half-life [2]?
Answer: The half-life was about 30 h.

Question: What about the “% Emax0-12 h from Day 1 pre-dose” value ([3]; 0.3 mg dose group) of the same molecule?
Answer: Its value is 41.9%.

Question: What about the “% Emax0-12 h from time-matched Day −1” value ([3]; 0.3 mg dose group) of the same molecule?
Answer: The value was 47.8%.

Question: What about the “% Emax0-12 h from Day 1 pre-dose” value ([3]; 1 mg dose group) of the same molecule?
Answer: Its value is 71.3%.

Question: What about the “% Emax0-12 h from time-matched Day −1” value ([3]; 1 mg dose group) of the same molecule?
Answer: The value was 73.8%.

Question: What about the “ALC decrease, chronic response” value ([3]; 2.5 mg) of the same molecule?
Answer: The value was about 70%.

Question: And the “% Emax0-12 h from Day 1 pre-dose” value ([3]; 2.5 mg dose group)?
Answer: The value was 66.9%.

Question: And the “% Emax0-12 h from time-matched Day −1” value ([3]; 2.5 mg dose group)?
Answer: The value was 67.5%.

Question: And the “ALC decrease, chronic response (plateau)” value ([3]; 10 mg)?
Answer: The value was “about 80%”.

Question: And the “% Emax0-12 h from Day 1 pre-dose” value ([3]; 10 mg dose group)?
Answer: Its value is 83.7%.

Question: And the “% Emax0-12 h from time-matched Day −1” value ([3]; 10 mg dose group)?
Answer: Its value is 86.1%.

Question: What about the “% Emax0-12 h from Day 1 pre-dose” value ([3]; 20 mg dose group) of the same molecule?
Answer: Its value is 84.8%.

Question: And the “% Emax0-12 h from time-matched Day −1” value ([3]; 20 mg dose group)?
Answer: The value was 86.5%.

Question: What about the “acute ALC response” value ([3]; Day 1 of treatment, between 0.3 mg and 10 mg dose) of the same molecule?
Answer: Its value is “dose-dependent decline of ALC”.

Question: And the “reduction in heart rate vs. placebo” value ([4]; Day 1, either titration regimen)?
Answer: Its value is “no statistically significant reduction in heart rate vs. placebo”.

Question: And the “reduction in HR” value ([4]; Days 3 to 7, DT 1# and DT 2#)?
Answer: The value was “minor reductions in HR”.

Question: And the “heart rates versus placebo” value ([4]; by Day 9 until Day 12, both titration regimens)?
Answer: The value was “comparable to placebo”.

Question: What about the “clinically significant bradycardia or AV conduction effects” value ([4]; dose titration regimens DT 1# and DT 2# (0.25 mg to 10 mg), oral, 12 days) of the same molecule?
Answer: Its value is “Neither DT 1# nor DT 2# resulted in clinically significant bradycardia or AV conduction effects”.

Question: And the “heart rates versus placebo” value ([4]; non-titration regimen, 10 mg fixed dose once daily, throughout the study)?
Answer: The value was “considerable separation from placebo”.

Question: And the bradyarrhythmia ([4]; starting dose of 0.25 mg of the 2 DT regimens)?
Answer: Its bradyarrhythmia is “not associated with bradyarrhythmia”.

Question: And the “global functioning, modified Rankin Scale (mRS) score” value ([5]; Day 90 after ICH, 7 days i.v. with titration followed by 7 days p.o.)?
Answer: Its value is “improves global functioning”.

Question: What about the “development of perihematomal edema (PHE)” value ([5]; between 24 hours and 14 days after initiation of treatment) of the same molecule?
Answer: The value was “decreases the development of perihematomal edema (PHE)”.

Question: And the functional mobility ([5]; two week treatment)?
Answer: The functional mobility was “improves functional mobility of the affected body parts”.

Question: And the “only relevant adverse event” value [6]?
Answer: The value was “symptomatic bradycardia”.

Question: And the “pharmacokinetics (PK) linearity” value ([7]; human, in vivo)?
Answer: The value was “dose linear and time-independent pharmacokinetics”.

Question: What about the Tmax ([7]; human, in vivo, 0.25 mg, oral, after dosing, read-out: median oral Tmax) of the same molecule?
Answer: The Tmax was 8 h.

Question: And the “magnitude of PD (ALC) effects %Emax, i.v. versus oral” value ([7]; i.v. 0.25 mg over 3 hour and 1 mg over 24 hours)?
Answer: Its value is “comparable to the effects after oral doses at the same dose levels”.

Question: And the “median i.v. Tmax” value ([7]; i.v. infusion 0.25 mg over 3 hours and 1 mg over 24 hours)?
Answer: The value was “at the end of the 3 hour and 24 hour infusions”.

Question: And the cardiac safety profile ([7]; i.v. infusion 0.25 mg over 3 hours and 1 mg over 24 hours (4×0.25 mg/6 hours))?
Answer: Its cardiac safety profile is “excellent cardiac safety profile”.

Question: What about the “geometric mean oral Cmax relative to mean i.v. Cmax (lower)” value ([7]; oral versus i.v.) of the same molecule?
Answer: The value was -48%.

Question: And the cardiovascular effects [8]?
Answer: The cardiovascular effects was “Cmax-related transient cardiovascular effects”.

Question: And the safety and tolerability ([9]; 25 mg single dose)?
Answer: The safety and tolerability was “favorable safety and tolerability profile”.

Question: And the “single maximum tolerated dose (single MTD)” value ([9]; single dose)?
Answer: Its value is 25 mg.

Question: And the metabolizing enzymes [10]?
Answer: The metabolizing enzymes was “mainly by CYP2C9, followed by CYP3A4”.

Question: And the “Tmax in poor versus extensive metabolizers” value ([11]; poor and extensive metabolizers)?
Answer: The value was “comparable”.

Question: And the “Cmax in poor versus extensive metabolizers” value ([11]; poor metabolizers)?
Answer: Its value is “only slightly greater”.

Question: And the “AUC fold versus extensive metabolizers (CYP2C9*1*1)” value ([11]; poor metabolizers (CYP2C9*2*3 and CYP2C9*3*3 genotypes))?
Answer: The value was “approximately 2 fold”.

Question: What about the MRI-based efficacy ([12]; 1.25 mg to 2 mg dose range) of the same molecule?
Answer: Its MRI-based efficacy is “close to maximal efficacy”.

Question: And the safety profile ([12]; 1.25 mg to 2 mg dose range)?
Answer: Its safety profile is “good safety profile”.

Question: What about the MRI-based efficacy ([12]; 10 mg orally once daily) of the same molecule?
Answer: Its MRI-based efficacy is “little additional efficacy compared to 2 mg”.

Question: And the safety profile ([12]; 10 mg orally once daily)?
Answer: The safety profile was “worse safety profile”.
